As a reminder, the Ki is a dissociation constant, usually derived from enzyme kinetics or from competition with a known ligand. In general, IC50 refers to the midpoint of a concentration-inhibition curve. As a reminder, the melting point is the temperature of the solid-liquid transition.

Series [1] concerns the target T1, human adenosine A2b receptor (Homo sapiens, UniProt P29275).
T1 sequence (P29275 1-332): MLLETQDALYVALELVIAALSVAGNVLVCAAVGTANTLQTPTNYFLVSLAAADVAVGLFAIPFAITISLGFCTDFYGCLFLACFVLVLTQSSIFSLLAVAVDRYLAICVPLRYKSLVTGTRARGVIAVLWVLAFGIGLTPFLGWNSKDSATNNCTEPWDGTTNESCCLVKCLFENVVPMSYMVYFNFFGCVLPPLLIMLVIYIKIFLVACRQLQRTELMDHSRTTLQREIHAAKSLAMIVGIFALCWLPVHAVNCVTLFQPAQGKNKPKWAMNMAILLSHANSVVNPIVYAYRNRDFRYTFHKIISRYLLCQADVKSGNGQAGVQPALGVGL
The experiment in a line: Adenosine receptor radioligand binding assay, A2b receptor ([3H]-CPX, HEK293 membranes). The note with it: membrane preparations of HEK293 cells, radioligand [3H]-CPX. The arrangement: expressed in transfected cells. On the procedure:
(§1) The binding properties of the test compounds on adenosine receptors were determined in binding studies with radioligands. For this purpose, membrane preparations of the human adenosine receptor subtypes were produced from cell lines having recombinant receptor expression (CHO cells for the A1 receptor, HEK293 cells for the A2a, A2b and A3 receptors). The following radioligands were used in the experiments: [^3H]-DPCPX for the A1 receptor, [^3H]-CGS 21680 for the A2a receptor, [^3H]-CPX for the A2b receptor and [^125I]-AB-MECA for the A3 receptor. The test substances were each tested in 8 different concentrations and 2 repeat tests per concentration. The displacement of the particular radioligand by the test compound was expressed as percentage inhibition of the specific binding of the controls.
(§2) The IC50 values (concentration which brings about half-maximum inhibition of the specific binding of the controls) and the Hill coefficients (nH) were determined by a non-linear regression analysis, using the competition curves obtained from the mean values of the repeat tests and conducting a curve fit according to the Hill equation:
(§3) (Y=specific binding; A=left-hand asymptote of the curve; D=right-hand asymptote of the curve; C=substance concentration; C50=IC50; nH=rise factor).
(§4) The inhibition constant (Ki) was calculated by the Cheng-Prusoff equation:
(§5) (L=concentration of the radioligand in the assay; KD=receptor affinity of the radioligand for the receptor, determined with a Scatchard plot).
(§6) [Literature: A1 receptor: Townsend-Nicholson, A. und Schofield, P. R., J. Biol. Chem. 269: 2373-2376 (1994); A2a receptor: Luthin, D. R. et al., Mol. Pharmacol. 47: 307-313 (1995); A2b receptor: Stehle, J. H. et al., Mol. Endocrinol. 6: 384-393 (1992) and Linden et al., Mol. Pharmacol. 56: 705-713 (1999); A3 receptor: Salvatore, C. A. et al., Proc. Natl. Acad. Sci. U.S.A. 90: 10365-10369 (1993) and Jacobson, K. A. et al., Neuropharmacology 36: 1157-1165 (1997)].
(§7) Table 2 below lists the K1 values thus determined from these binding assays for representative working examples (in some cases as means of a plurality of independent individual determinations and rounded to two significant figures; it may also be the case here that various independent preparations of the respective working example have been used): […]

The target of series [2] is T2, human adenosine A1 receptor (Homo sapiens, UniProt P30542).
T2 construct: expressed in transfected cells; host or cells: CHO
T2 sequence (P30542 1-326): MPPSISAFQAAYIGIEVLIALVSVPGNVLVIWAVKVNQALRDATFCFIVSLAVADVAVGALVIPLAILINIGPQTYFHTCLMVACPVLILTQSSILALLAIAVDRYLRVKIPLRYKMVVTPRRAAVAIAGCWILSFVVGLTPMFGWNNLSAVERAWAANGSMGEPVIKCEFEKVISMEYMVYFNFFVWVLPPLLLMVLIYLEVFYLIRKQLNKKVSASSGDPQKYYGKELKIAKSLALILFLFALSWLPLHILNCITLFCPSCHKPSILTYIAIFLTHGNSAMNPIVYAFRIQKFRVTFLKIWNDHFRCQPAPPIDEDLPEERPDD
The experiment in a line: Adenosine receptor radioligand binding assay, A1 receptor ([3H]-DPCPX, CHO membranes). The note with it: membrane preparations of CHO cells, radioligand [3H]-DPCPX. On the procedure: as §1, §2, §3, §4, §5, §6, §7

The target in series [3] is T3, human adenosine A2a receptor (Homo sapiens, UniProt P29274).
T3 construct: expressed in transfected cells; host or cells: HEK293
T3 sequence (P29274 whole entry): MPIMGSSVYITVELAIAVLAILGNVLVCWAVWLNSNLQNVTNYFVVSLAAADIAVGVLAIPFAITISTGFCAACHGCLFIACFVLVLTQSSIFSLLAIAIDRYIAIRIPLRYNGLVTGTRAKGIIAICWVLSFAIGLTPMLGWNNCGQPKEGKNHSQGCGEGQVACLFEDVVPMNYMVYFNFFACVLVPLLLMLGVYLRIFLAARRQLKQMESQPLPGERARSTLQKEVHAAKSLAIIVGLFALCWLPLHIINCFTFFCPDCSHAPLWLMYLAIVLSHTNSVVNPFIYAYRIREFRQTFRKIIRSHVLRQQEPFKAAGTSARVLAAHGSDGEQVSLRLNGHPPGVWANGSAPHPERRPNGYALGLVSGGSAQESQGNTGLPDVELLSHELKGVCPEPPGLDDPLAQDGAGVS
As to the kind of experiment: Adenosine receptor radioligand binding assay, A2a receptor ([3H]-CGS 21680, HEK293 membranes). To be noted: membrane preparations of HEK293 cells, radioligand [3H]-CGS 21680. Here is the method: as §1, §2, §3, §4, §5, §6, §7

Series [4] addresses T4, human adenosine A3 receptor (Homo sapiens, UniProt P0DMS8).
T4 construct: expressed in transfected cells; host or cells: HEK293
T4 sequence (P0DMS8 1-318): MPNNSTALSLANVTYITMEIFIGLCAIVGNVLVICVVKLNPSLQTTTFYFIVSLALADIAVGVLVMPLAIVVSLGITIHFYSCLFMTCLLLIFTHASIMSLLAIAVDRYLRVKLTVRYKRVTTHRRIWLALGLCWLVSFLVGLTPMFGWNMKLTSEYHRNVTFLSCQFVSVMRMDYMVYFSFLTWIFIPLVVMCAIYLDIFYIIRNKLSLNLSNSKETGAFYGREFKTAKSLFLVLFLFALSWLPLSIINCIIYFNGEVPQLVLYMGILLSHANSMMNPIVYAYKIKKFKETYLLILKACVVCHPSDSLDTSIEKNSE
The experiment in a line: Adenosine receptor radioligand binding assay, A3 receptor ([125I]-AB-MECA, HEK293 membranes). The note with it: membrane preparations of HEK293 cells, radioligand [125I]-AB-MECA. On the procedure: as §1, §2, §3, §4, §5, §6, §7

The target in series [5] is T1, human adenosine A2b receptor. As to the kind of experiment: Cellular in vitro reporter gene test for A2b receptor activity (antagonism of NECA). The note with it: recombinant CHO-K1 cells, CRE-luciferase reporter, co-incubation with EC50 concentration of NECA, 3 hours. Format: cell-based. The arrangement: expressed in transfected cells; host or cells: CHO-K1 (Chinese hamster ovary) with CRE-luciferase reporter. The essentials: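 Antagonism measured as block of NECA-induced, cAMP/CRE-dependent luciferase expression in recombinant A2b CHO-K1 cells. NECA used at the EC50 set in a pre-experiment on each test day; luminescence detected after 3 h. Reported as IC50, partly averaged and rounded to two significant figures.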
(In general: A reporter such as luciferase makes a cellular process visible.)

Series [6] deals with IL-6 release by LL29 fibroblasts. As to the kind of experiment: NECA-induced IL-6 release by LL29 fibroblasts. To be noted: Homo sapiens, Fibroblast; LL29 cells stimulated with NECA (10 μM), 24 hours, IL-6 ELISA of supernatant. The class given is cell-based. On the procedure: Stimulation of fibroblasts with adenosine or the adenosine analog 5′-N-ethylcarboxamidoadenosine (NECA) leads to release of the pro-inflammatory and pro-fibrotic cytokine IL-6 which can be prevented by inhibition of the A2b receptor.
Accordingly, confluent cells of the human fibroblast cell line LL29 were treated with the test substances and stimulated with NECA (10 μM). After an incubation time of 24 hours, the cell supernatant is removed and human IL-6 in the cell supernatant is determined by ELISA (Quantikine® IL6 ELISA, R&D Systems, Minneapolis, USA).
Table 3 below lists the IC50 values obtained in this way for inhibition of IL-6 release for representative working examples (in some cases as means of a plurality of independent individual determinations and rounded to two significant figures; it may also be the case here that various independent preparations of the respective working example have been used): […]
Background: An ELISA detects its analyte on a solid surface through an enzyme-linked reagent.

Series [7] concerns bladder tumours and breast tumours. The note with it: animal models of bladder tumours and breast tumours; cited from earlier work.
The subject of series [8] is colon cancer cell lines. The note with it: inhibition of the A2b receptor-mediated adenosine signalling pathway; cited from earlier work.
For series [9], the system named is prostate cancer cell lines. The note with it: cited from earlier work.
In series [10] the test system is melanoma animal models. To be noted: cited from earlier work.

The structures appear in SMILES notation.

Regarding `COCCn1c(=O)n(C2CC2C)c(=O)c2c(C)c(CN3CCNC3=O)sc21` (single isomer, unassigned) [Example 96, 1-(2-Methoxyethyl)-5-methyl-3-(2-methylcyclopropyl)-6-[(2-oxoimidazolidin-1-yl)methyl]thieno[2,3-d]pyrimidine-2,4(1H,3H)-dione], the Ki stood at 0.0037 µM in series [1], 3.4 µM in series [2], 0.48 µM in [3] and 3.7 µM in series [4]. The IC50 in series [5] amounted to 0.0038 µM; in series [6], 0.0049 µM.

On to `CCCn1c(=O)n(C2CC2)c(=O)c2[nH]c(-c3ccc(N(CC)C(=O)c4cccnc4)nc3)nc21` [ATL801], for which, in series [7], the “interferon γ level” value is “significant increase”, the metastasis entry is given as “distinct reduction in metastasis”, the “number of tumour antigen-presenting dendritic cells” value was “increase” and the tumour growth entry was “slowing of tumour growth”.

Consider `Cc1c(CN2CCNC2=O)sc2c1c(=O)n(C1CC1)c(=O)n2CCCF` [Example 5, 3-Cyclopropyl-1-(3-fluoropropyl)-5-methyl-6-[(2-oxoimidazolidin-1-yl)methyl]thieno[2,3-d]pyrimidine-2,4(1H,3H)-dione], for which the IC50 in series [5] stood at 0.012 µM; in series [6], 0.021 µM.

As for `Cc1c(Cn2nc[nH]c2=O)sc2c1c(=O)n(C1CC1)c(=O)n2CCC(F)(F)F` [Example 15, 3-Cyclopropyl-5-methyl-6-[(5-oxo-4,5-dihydro-1H-1,2,4-triazol-1-yl)methyl]-1-(3,3,3-trifluoropropyl)thieno[2,3-d]pyrimidine-2,4(1H,3H)-dione], the Ki in [1] is 0.0036 µM; in series [2] it was 8 µM; in series [3] it was 3 µM; in [4] it was above 10 µM. In [5], the IC50 is 0.014 µM.

Consider `COCCn1c(=O)n(C2CC2)c(=O)c2c(C)c(CN3CCNC3=NC(=O)OC)sc21` [Example 26, Methyl [1-{[3-cyclopropyl-1-(2-methoxyethyl)-5-methyl-2,4-dioxo-1,2,3,4-tetrahydrothieno[2,3-d]pyrimidin-6-yl]methyl}imidazolidin-2-ylidene]carbamate], for which the IC50 in [5] stood at 0.0083 µM; in series [6] it was 0.012 µM.

`Cc1c(Cn2nc[nH]c2=O)sc2c1c(=O)n(C1CC1)c(=O)n2CCOC(F)(F)F` [Example 36, 3-Cyclopropyl-5-methyl-6-[(5-oxo-4,5-dihydro-1H-1,2,4-triazol-1-yl)methyl]-1-[2-(trifluoromethoxy)ethyl]thieno[2,3-d]pyrimidine-2,4(1H,3H)-dione] gave a melting point of 199 °C. In [1], this compound displayed a Ki of 0.0026 µM. The same compound registered a Ki in [2] of 2.6 µM. The Ki in series [3] is 0.95 µM. Moreover, in series [4], the Ki was above 50 µM. In addition, the half-maximal inhibitory concentration (IC50) in [5] was 0.0044 µM. Moreover, in series [6], the IC50 stood at 0.0061 µM.

Turning to `COCCn1c(=O)n(C2(C)CC2)c(=O)c2c(C)c(CN3CCNC3=O)sc21` [Example 70, 1-(2-Methoxyethyl)-5-methyl-3-(1-methylcyclopropyl)-6-[(2-oxoimidazolidin-1-yl)methyl]thieno[2,3-d]pyrimidine-2,4(1H,3H)-dione], the Ki in series [1] is 0.0057 µM; in series [2] it was above 10 µM; in series [3] it was 4.8 µM; in series [4] it was above 10 µM. In series [5], the IC50 was found to be 0.015 µM.

For `Cc1c(Cn2nc[nH]c2=O)sc2c1c(=O)n(C1(C)CC1)c(=O)n2CCOC(F)(F)F` [Example 76, 5-Methyl-3-(1-methylcyclopropyl)-6-[(5-oxo-4,5-dihydro-1H-1,2,4-triazol-1-yl)methyl]-1-[2-(trifluormethoxy)ethyl]thieno[2,3-d]pyrimidine-2,4(1H,3H)-dione], the values for the concentration for half-maximal inhibition (IC50) in series [5] and in series [6] were 0.0085 µM and 0.011 µM, respectively.

As for `COCCn1c(=O)n([C@H]2C[C@@H]2C)c(=O)c2c(C)c(CN3CCNC3=O)sc21` [Example 315, 1-(2-Methoxyethyl)-5-methyl-3-[(1S,2S)-2-methylcyclopropyl]-6-[(2-oxoimidazolidin-1-yl)methyl]thieno[2,3-d]pyrimidine-2,4(1H,3H)-dione], the Ki in series [1] worked out at 0.0037 µM; in series [2], 3.4 µM; in series [3], 0.48 µM; in series [4] it was 3.7 µM. For the same compound, the figures for the IC50 in series [5] and in series [6] were 0.0038 µM and 0.0049 µM, respectively.

As to `CCCn1c(=O)c2[nH]c(-c3ccc(OCC(=O)Nc4ccc(C#N)cc4)cc3)nc2n(CCC)c1=O` [MRS1754], the “growth of colon cancer cell lines” value in [8] is “reduced growth”.

Regarding `CCCn1c(=O)[nH]c2nc(-c3ccc(S(=O)(=O)N4CCN(c5ccc(Cl)cc5)CC4)cc3)[nH]c2c1=O` [PSB603], the “growth of several prostate cancer cell lines” value in [9] is “reduces the growth”. Also, the “tumour growth and metastasis” value in series [10] is “reduction in tumour growth and metastasis”.

(Values after patent US20200016159A1, “N3-CYCLICALLY SUBSTITUTED THIENOURACILS AND USE THEREOF” (Bayer Aktiengesellschaft, priority 2016, published 2020).)
